Test results as given in the supplement of paper PMC10307832.

Key:
Assay in all cases: relative viability (nuclei count vs DMSO), 5 days (fraction); higher = more cells survive
[1] = compound: O=C(NCCCNc1nc(Nc2cccc(NC(=O)N3CCCC3)c2)ncc1I)c1cccs1 [BX 795] + Cc1nc(NC(=O)N2CCC[C@H]2C(N)=O)sc1-c1ccnc(C(C)(C)C(F)(F)F)c1 [Alpelisib] (partner 2 µM)
In short: (§1)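 Relative viability is defined as nuclei in treated wells over nuclei in vehicle wells. Duplicate plates were run and medians reported. Lung cancer cell lines in 1536-well plates were dosed by pin tool one day after seeding, with one drug or with a fixed anchor-drug dose plus five library-drug doses (not always all listed) in √10 steps, and nuclei were counted after 5 days.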

[2] = compound: O=C(NCCCNc1nc(Nc2cccc(NC(=O)N3CCCC3)c2)ncc1I)c1cccs1 [BX 795] + CCNC(=O)c1noc(-c2cc(C(C)C)c(O)cc2O)c1-c1ccc(CN2CCOCC2)cc1 [Luminespib] (partner 0.01 µM)
In short: as §1

[3] = compound: O=C(NCCCNc1nc(Nc2cccc(NC(=O)N3CCCC3)c2)ncc1I)c1cccs1 [BX 795] + CC(C)C[C@H](NC(=O)[C@H](Cc1ccccc1)NC(=O)c1cnccn1)B(O)O [Bortezomib] (partner 0.002 µM)
In short: as §1

[4] = compound: O=C(NCCCNc1nc(Nc2cccc(NC(=O)N3CCCC3)c2)ncc1I)c1cccs1 [BX 795] + CS(=O)(=O)CCNCc1ccc(-c2ccc3ncnc(Nc4ccc(OCc5cccc(F)c5)c(Cl)c4)c3c2)o1 [Lapatinib] (partner 2 µM)
In short: as §1

[5] = compound: O=C(NCCCNc1nc(Nc2cccc(NC(=O)N3CCCC3)c2)ncc1I)c1cccs1 [BX 795] + COc1cccc2cc(-c3nc([C@H]4CC[C@H](C(=O)O)CC4)n4ncnc(N)c34)[nH]c12 [OSI-027] (partner 0.5 µM)
In short: as §1

Cell Line	relative viability ([1]; first compound 0.04 µM)	relative viability ([1]; first compound 0.1265 µM)	relative viability ([1]; first compound 0.4 µM)	relative viability ([1]; first compound 1.265 µM)	relative viability ([2]; first compound 0.04 µM)	relative viability ([2]; first compound 0.1265 µM)	relative viability ([2]; first compound 0.4 µM)	relative viability ([2]; first compound 1.265 µM)	relative viability ([3]; first compound 0.04 µM)	relative viability ([3]; first compound 0.1265 µM)	relative viability ([3]; first compound 0.4 µM)	relative viability ([3]; first compound 1.265 µM)	relative viability ([4]; first compound 0.04 µM)	relative viability ([4]; first compound 0.1265 µM)	relative viability ([4]; first compound 0.4 µM)	relative viability ([4]; first compound 1.265 µM)	relative viability ([5]; first compound 0.04 µM)	relative viability ([5]; first compound 0.1265 µM)	relative viability ([5]; first compound 0.4 µM)	relative viability ([5]; first compound 1.265 µM)
NCI-H2228	0.787	0.857	0.828	0.362	0.104	0.127	0.122	0.169	1.03	1.11	0.907	0.308	0.87	1.3	0.791	0.319	0.483	0.641	0.471	0.265
NCI-H1792	0.705	0.904	0.706	0.572	0.477	0.336	0.432	0.384	0.963	1.08	1.12	0.954	0.872	0.903	0.981	0.842	0.765	0.728	0.702	0.53
NCI-H1915	1.11	1.08	1.14	0.928	0.688	0.891	0.71	0.624	1.07	1.01	0.974	0.953	0.947	0.951	0.947	0.827	0.7	0.6	0.663	0.469
NCI-H1993	0.583	0.655	0.641	0.689	0.686	1.1	0.726	0.532	1.15	1.26	1.05	1.02	0.848	0.786	0.79	0.658	0.528	0.537	0.531	0.532
HCC-44	0.742	0.865	0.85	0.543	0.98	1.37	0.497	0.58	0.818	0.929	1.1	0.772	0.934	1.01	0.981	1.04	0.483	0.472	0.564	0.45
NCI-H23	0.659	0.737	0.743	0.526		0.207	0.216	0.211	1.05	1.31	0.987	1.26	1.24	1.26	0.812	0.884	0.6	0.701	0.621	0.506
EKVX	0.841	0.933	0.808	0.837	0.893	0.977	0.825	0.79	1.15	1.09	0.99	0.886	0.248	0.367	0.243	0.208	0.657	0.649	0.63	0.603
HOP-62	0.901	0.643	1.24	1	0.81	1.01	1.08	1.02	0.51	0.59	0.615	0.682	1.09	1.1	1.29	1.07	0.833	0.917	0.84	0.768
NCI-H2126	0.768	0.763	0.876	0.728	0.902	0.955	0.812	0.944	1.08	1.07	1.21	1.07	0.728	0.752	0.837	0.767	0.837	0.677	0.818	0.699
NCI-H1734	0.699	0.658	0.708	0.424	0.173	0.209	0.154	0.149	0.965	1.03	0.914	0.545	0.993	1.15	0.79	0.801	0.536	0.592	0.555	0.419
HARA	0.752	0.82	1.2	0.605	0.588	0.838	0.907	0.656	1.12	1.03	1.1	1.06	0.714	0.564	0.753	0.697	0.598	0.494	0.701	0.41
201T	1.01	1.02	1.1	1.03	1.03	1.07	1.19	1.04	1.12	1.08	1.18	1.11	1.1	1.04	1.12	1.01	0.946	0.675	0.775	0.824
NCI-H2085	1.09	0.98	1.14	0.863	0.38	0.416	0.441	0.332	1.04	0.98	1.02	0.999	0.881	0.781	0.741	0.642	0.732	0.817	0.73	0.648
NCI-H1437	1.02	1.06	1.01	0.863	1.13	1.14	1.17	1.12	0.543	0.493	0.533	0.415	0.833	0.858	0.782	0.547	0.879	0.89	0.834	0.847
NCI-H460	0.475	0.457	0.498	0.245	0.0385	0.0327	0.0422	0.0269	1.1	1.27	1.08	1.09	0.952	1.62	0.892	0.729	0.633	0.561	0.543	0.224
NCI-H3122	0.989	0.832	0.78	0.866	0.0821	0.114	0.0793	0.0891	1.02	1.04	1.04	0.986	1.04	1	1.09	1.05	0.948	1.06	0.947	0.733
